# From patent publication US8673908B2, “Kynurenine production inhibitor” (Kyowa Hakko Kirin Co., Ltd., priority 2008, dated 2014)
# Tested on: kynurenine production in IFN-γ-treated KATO-III cells
# Test: Inhibitory activity on kynurenine production (Test Example 1)
# Assay type: cell-based
# Settings: Homo sapiens, IFN-γ treatment, culture for 96 hours, read-out: IC50 value, inhibition of kynurenine production
# Description: This assay was performed according to a method modified from the method described in the Journal of Biological Chemistry (J. Biol. Chem.), vol. 263, pp. 2041-2048 (1988). Culture of KATO-III derived from human gastric cancer cells was performed by use of RPMI 1640 (GIBCO, 11875) supplemented with 10 vol % FBS (GIBCO, 10091-148, lot. 665285). 1 μL of a DMSO solution of the test substance was diluted with 199 μL of the culture medium, and the diluted solution was added to wells of a 384 well plate (10 μL/well). Then, IFN-γ (Sigma, 1-3265) was added to the culture medium so that the concentration of IFN-γ was 31.25 ng/mL, and the KATO-III cells were suspended at 50,000 cells/ml, in the culture medium. 40 μL of the suspension was added to each well (2,000 cells/well), and culture of the KATO-III cells was performed at 37° C. under a 5% CO2 atmosphere for 96 hours. The final concentration of DMSO was limited to 0.1 vol % or less so that DMSO itself might not affect the kynurenine concentration measured by this assay. After the culture, 10 μL of a 30 w/v % aqueous trichloroacetic acid solution was added to each well, and incubation was performed at 65° C. for 30 minutes. The plate was centrifuged at 2,500×g for 5 minutes, and then 15 μL of the supernatant in each well was transferred into another 384 well plate. To each of the transferred supernatants, 15 μL of a 2 w/v % solution of p-dimethylaminobenzaldehyde in acetic acid was added, incubation was performed at 65° C. for 20 minutes, and then the absorbance at 480 nm was measured.
# [formula] Sample: the absorbance value of the well to which a DMSO solution containing the test substance was added and in which cells were treated with IFN-γ. Blank: the absorbance value of the well to which only DMSO, not the test substance was added and in which cells were treated with IFN-γ. Control: the absorbance value of the well to which only DMSO, not the test substance was added and in which cells were not treated with IFN-γ.
# In this assay, expression of IDO in KATO-III cells is induced by IFN-γ treatment and then kynurenine in the culture medium is quantified. It is known that the kynurenine concentration in a culture medium increases in proportion to the enzymatic activity of intracellular IDO (for example, the Journal of Biological Chemistry (J. Biol. Chem.), vol. 263, pp. 2041-2048 (1988)). […] It is known that kynurenine production is inhibited by IDO inhibitors (for example, the Journal of Clinical Investigation (J. Clin. Invest.), vol. 117, No. 5, pp. 1147-1154 […]), and thus it is expected that Compound (I) also has an inhibitory effect on IDO.
row,IC50 [nM],Compound
1,< 1000,"Cc1ccc(C(Oc2nc3ccccc3nc2NS(=O)(=O)c2c(C)noc2C)C(F)(F)F)cn1 (centres unmarked) [Compound 70, 3,5-dimethyl-N-{3-[2,2,2-trifluoro-1-(6-methylpyridin-3-yl)ethoxy]quinoxalin-2-yl}isoxazole-4-sulfonamide]"
2,< 1000,"COc1cncc(C(Oc2nc3ccccc3nc2NS(=O)(=O)c2ccccc2Cl)C(F)(F)F)c1 (centres unmarked) [Compound 71, 2-chloro-N-{3-[2,2,2-trifluoro-1-(5-methoxypyridin-3-yl)-ethoxy]quinoxalin-2-yl}benzenesulfonamide]"
3,< 1000,"O=S(=O)(Nc1nc2ccccc2nc1OC(c1cccnc1)C1CCOCC1)c1ccccc1Cl (centres unmarked) [Compound 73, 2-chloro-N-{3-[tetrahydropyran-4-yl(pyridin-3-yl)methoxy]-quinoxalin-2-yl}benzenesulfonamide]"
4,< 1000,"O=S(=O)(Nc1nc2ccccc2nc1OC(c1cccnc1)C1(F)CCOCC1)c1ccccc1Cl (centres unmarked) [Compound 78, 2-chloro-N-{3-[4-fluorotetrahydropyran-4-yl(pyridin-3-yl)-methoxy]quinoxalin-2-yl}benzenesulfonamide]"
5,< 1000,"CC(C)(C(Oc1nc2ccccc2nc1NS(=O)(=O)c1ccccc1Cl)c1cccnc1)S(C)(=O)=O (centres unmarked) [Compound 80, 2-chloro-N-{3-[2-methanesulfonyl-2-methyl-1-(pyridin-3-yl)-propoxy]quinoxalin-2-yl}benzenesulfonamide]"
6,< 1000,"N#Cc1cccc(C(Oc2nc3ccccc3nc2NS(=O)(=O)c2ccccc2Cl)C(F)(F)F)c1 (centres unmarked) [Compound 82, 2-chloro-N-{3-[2,2,2-trifluoro-1-(3-cyanophenyl)ethoxy]-quinoxalin-2-yl}benzenesulfonamide]"
7,< 1000,"O=S(=O)(Nc1nc2ccccc2nc1OC(c1cccc(F)c1)C(F)(F)F)c1ccccc1Cl (centres unmarked) [Compound 83, 2-chloro-N-{3-[2,2,2-trifluoro-1-(3-fluorophenyl)ethoxy]-quinoxalin-2-yl}benzenesulfonamide]"
8,< 1000,"O=S(=O)(Nc1nc2ccccc2nc1OC(c1cccc(Cl)c1)C(F)(F)F)c1ccccc1Cl (centres unmarked) [Compound 84, 2-chloro-N-{3-[2,2,2-trifluoro-1-(3-chlorophenyl)ethoxy]-quinoxalin-2-yl}benzenesulfonamide]"
9,< 1000,"O=S(=O)(Nc1nc2ccccc2nc1OC(c1ccc(Cl)nc1)C(F)(F)F)c1ccccc1Cl (centres unmarked) [Compound 85, 2-chloro-N-{3-[2,2,2-trifluoro-1-(6-chloropyridin-3-yl)-ethoxy]quinoxalin-2-yl}benzenesulfonamide]"
10,< 1000,"O=S(=O)(Nc1nc2ccccc2nc1OC(c1ccc(Br)nc1)C(F)(F)F)c1ccccc1Cl (centres unmarked) [Compound 86, 2-chloro-N-{3-[2,2,2-trifluoro-1-(6-bromopyridin-3-yl)-ethoxy]quinoxalin-2-yl}benzenesulfonamide]"
11,< 1000,"Cc1nn(C)c(Cl)c1S(=O)(=O)Nc1nc2ccccc2nc1OC(c1cccnc1)C1(F)CCOCC1 (centres unmarked) [Compound 87, 5-chloro-1,3-dimethyl-N-{3-[4-fluorotetrahydropyran-4-yl-(pyridin-3-yl)methoxy]quinoxalin-2-yl}-1H-pyrazole-4-sulfonamide]"
12,< 1000,"Cc1noc(C)c1S(=O)(=O)Nc1nc2ccccc2nc1OC(c1cccnc1)C1(F)CCOCC1 (centres unmarked) [Compound 88, 3,5-dimethyl-N-{3-[4-fluorotetrahydropyran-4-yl(pyridin-3-yl)methoxy]quinoxalin-2-yl}isoxazole-4-sulfonamide]"
13,< 1000,"O=S(=O)(Nc1nc2ccccc2nc1OC(c1ccc(C2CC2)nc1)C(F)(F)F)c1ccccc1Cl (centres unmarked) [Compound 89, 2-chloro-N-{3-[2,2,2-trifluoro-1-(6-cyclopropylpyridin-3-yl)ethoxy]quinoxalin-2-yl}benzenesulfonamide]"
14,< 1000,"O=S(=O)(Nc1nc2ccccc2nc1OC1(c2cccnc2)CCOCC1)c1ccccc1Cl [Compound 90, 2-chloro-N-{3-{[4-(pyridin-3-yl)tetrahydropyran-4-yl]oxy}-quinoxalin-2-yl}benzenesulfonamide]"
15,1000 to 10000,"CC(C)(Oc1nc2ccccc2nc1NS(=O)(=O)c1ccccc1Cl)c1cccnc1 [Compound 91, 2-chloro-N-{3-[1-methyl-1-(pyridin-3-yl)ethoxy]quinoxalin-2-yl}benzenesulfonamide]"
16,< 1000,"O=S(=O)(Nc1nc2ccccc2nc1OC(c1ccc(N2CCCC2)nc1)C(F)(F)F)c1ccccc1Cl (centres unmarked) [Compound 93, 2-chloro-N-{3-{2,2,2-trifluoro-1-[6-(pyrrolidin-1-yl)-pyridin-3-yl]ethoxy}quinoxalin-2-yl}benzenesulfonamide]"
17,< 1000,"CCCS(=O)(=O)Nc1nc2ccccc2nc1OC(c1cccnc1)C1(F)CCOCC1 (centres unmarked) [Compound 94, N-{3-[4-fluorotetrahydropyran-4-yl(pyridin-3-yl)methoxy]-quinoxalin-2-yl}propane-1-sulfonamide]"
18,< 1000,"Cn1cc(C(Oc2nc3ccccc3nc2NS(=O)(=O)c2cccc(Cl)c2Cl)C(F)(F)F)cn1 (centres unmarked) [Compound 96, 2,3-dichloro-N-{3-[2,2,2-trifluoro-1-(1-methyl-1H-pyrazol-4-yl)ethoxy]quinoxalin-2-yl}benzenesulfonamide]"
19,< 1000,"Cn1cncc1C(Oc1nc2ccccc2nc1NS(=O)(=O)c1cccc(Cl)c1Cl)C(F)(F)F (centres unmarked) [Compound 97, 2,3-dichloro-N-{3-[2,2,2-trifluoro-1-(1-methyl-1H-imidazol-5-yl)ethoxy]quinoxalin-2-yl}benzenesulfonamide]"
20,< 1000,"O=S(=O)(Nc1nc2ccccc2nc1OC(c1cncs1)C(F)(F)F)c1cccc(Cl)c1Cl (centres unmarked) [Compound 98, 2,3-dichloro-N-{3-[2,2,2-trifluoro-1-(thiazol-5-yl)ethoxy]-quinoxalin-2-yl}benzenesulfonamide]"
21,< 1000,"O=S(=O)(Nc1nc2ccccc2nc1OC(c1nccs1)C(F)(F)F)c1cccc(Cl)c1Cl (centres unmarked) [Compound 99, 2,3-dichloro-N-{3-[2,2,2-trifluoro-1-(thiazol-2-yl)ethoxy]-quinoxalin-2-yl}benzenesulfonamide]"
22,< 1000,"O=S(=O)(Nc1nc2ccccc2nc1OC(c1cccs1)C(F)(F)F)c1cccc(Cl)c1Cl (centres unmarked) [Compound 100, 2,3-dichloro-N-{3-[2,2,2-trifluoro-1-(thiophen-2-yl)-ethoxy]quinoxalin-2-yl}benzenesulfonamide]"
23,< 1000,"O=S(=O)(Nc1nc2ccccc2nc1OC(c1ccsc1)C(F)(F)F)c1cccc(Cl)c1Cl (centres unmarked) [Compound 101, 2,3-dichloro-N-{3-[2,2,2-trifluoro-1-(thiophen-3-yl)-ethoxy]quinoxalin-2-yl}benzenesulfonamide]"
24,< 1000,"O=S(=O)(Nc1nc2ccccc2nc1OC(C1CCCCC1)C(F)(F)F)c1cccc(Cl)c1Cl (centres unmarked) [Compound 102, 2,3-dichloro-N-[3-(1-cyclohexyl-2,2,2-trifluoroethoxy)-quinoxalin-2-yl]benzenesulfonamide]"
25,< 1000,"Cn1c(C(Oc2nc3ccccc3nc2NS(=O)(=O)c2cccc(Cl)c2Cl)C(F)(F)F)cc2ccccc21 (centres unmarked) [Compound 103, 2,3-dichloro-N-{3-[2,2,2-trifluoro-1-(1-methyl-1H-indol-2-yl)ethoxy]quinoxalin-2-yl}benzenesulfonamide]"
26,< 1000,"O=S(=O)(Nc1nc2ccccc2nc1OC(c1cc2ccccc2o1)C(F)(F)F)c1ccccc1Cl (centres unmarked) [Compound 104, 2-chloro-N-{3-[2,2,2-trifluoro-1-(benzofuran-2-yl)ethoxy]-quinoxalin-2-yl}benzenesulfonamide]"
27,< 1000,"Cc1nc(C)c(C(Oc2nc3ccccc3nc2NS(=O)(=O)c2ccccc2Cl)C(F)(F)F)s1 (centres unmarked) [Compound 106, 2-chloro-N-{3-[2,2,2-trifluoro-1-(2,4-dimethylthiazol-5-yl)ethoxy]quinoxalin-2-yl}benzenesulfonamide]"
28,< 1000,"Cc1ncsc1C(Oc1nc2ccccc2nc1NS(=O)(=O)c1ccccc1Cl)C(F)(F)F (centres unmarked) [Compound 107, 2-chloro-N-{3-[2,2,2-trifluoro-1-(4-methylthiazol-5-yl)-ethoxy]quinoxalin-2-yl}benzenesulfonamide]"
29,< 1000,"CCn1cncc1C(Oc1nc2ccccc2nc1NS(=O)(=O)c1ccccc1Cl)C(F)(F)F (centres unmarked) [Compound 108, 2-chloro-N-{3-[2,2,2-trifluoro-1-(1-ethyl-1H-imidazol-5-yl)ethoxy]quinoxalin-2-yl}benzenesulfonamide]"
